Results: EP0994713B1, “USE OF A 7alpha-METHYL-17alpha-ETHYNYL-ESTRANE DERIVATIVE FOR THE TREATMENT OF ATHEROSCLEROSIS” (Akzo Nobel N.V., priority 1997, dated 1998)

Assays:
Assay type in all cases: in vivo, New Zealand White rabbits
[1] = test system: female ovariectomized rabbits; assay: Intimal thickening (advanced lesions) in carotid artery after de-endothelialisation; conditions: for Advanced lesions in carotid artery: intimal surface: cholesterol diet, OVX, necropsy at 20 weeks
Method: (§1) The model is considered relevant to the human atherosclerotic process, because the cellular events occurring during the development of the atherosclerotic lesions during the atherogenic diet are similar to those observed in different stages of atherosclerotic processes in coronary arteries.
(§2) An experiment was performed with 7 groups of sexually mature, virgin female New Zealand White rabbits (Harlan, Zeist, The Netherlands), age 7-9 months and weighing approximately 3 kg (number of […] per group: 13-14). During the acclimatization period the rabbits were fed a diet of standard commercial rabbit chow LKK20 (Hope Farms, Woerden, The Netherlands). Three weeks prior to the start of the experiment the animals were anaesthetized and underwent bilateral ovariectomy (OVX) or were sham operated. After three weeks, at the start of the experiment, the rabbits were randomized over the treatment groups. In all animals de-endothelialisation of a segment of the left carotid artery was applied by using the air-drying technique (Fishman, J.A. et al., "Endothelial regeneration in the rat carotid artery and the significance of endothelial denudation in the pathogenesis of myointimal thickening", Lab. Invest. 1975, 32, 339-351; and Lafont, A. et al., "Restenosis and experimental angioplasty: Intimal, medial and adventitial changes associated with constructive remodeling", Circulation Research, 1995, 76, 996-1002)
(§3) The animals were randomly allocated into 7 experimental groups using a randomized block design. The groups were fed an atherogenic diet (commercial rabbit chow (LKK20) enriched with 0.4 grams cholesterol, 3.75 grams coconut oil and 3.75 grams peanut oil per 100 grams). One group was fed the standard rabbit chow (LKK20). Food intake was restricted to 80 grams daily.
(§4) The treatments (Table I) were daily administered orally as a tablet, prepared as in Example 1. Groups 1, 2 and 3 were on a daily placebo treatment. Groups 4-5 were treated with 7α-methyl-17α-ethynyl-17β-hydroxy-estra-5(10)-en-3-one (OD-14; tibolone; 6 or 2 mg daily); group 6 with 17β-estradiol (4 mg daily). Group 7 was on treatment with 17β-estradiol decanoate (150 µg in 1 ml arachis oil injected subcutaneously once a week).
During the experiment blood samples were drawn out of the central ear artery after sedation with Hypnorm (0.1 ml i.m.) (Janssen Pharmaceutics, Beerse, Belgium) before the daily treatment, at week 4,8,12,16 and 20, to monitor the plasma cholesterol levels and to measure, at week 17, plasma estradiol levels and plasma tibolone levels. Twenty weeks after the start of the experiment animals were anaesthetized by an i.m. injection of Hypnorm (0.5 ml/kg). After blood sampling the rabbits were killed by exsanguination and the aortic arch, uterus and carotid artery removed for further analyses. […]
The left (airdried) carotid artery was dissected and fixed in 2% paraformaldehyde containing 6.8% glucose. The right carotid artery was used as comparison. After fixation the tissue was divided in blocks with a length of 2 mm and embedded in paraffin (Paraplast plus®, Sherwood Medical Co, St. Louis, USA) using an automated tissue processor (Hypercenter XP, Shandon).
To measure intimal thickening (using image analysis) a specific staining method and a belonging image analysis application have been developed.
Measurements were performed on 2 µm transverse sections which were treated with elastase (Serva Feinbiochemica Gmbh, Heidelberg, Germany) prior to elastin staining with Lawson solution (Boom, Meppel, the Netherlands) and light green (Sigma). Subsequently sections were airdried and mounted in Pertex (Leica Gmbh, Nussloch, Germany).
For morphological study both methylene blue/Azur II and hemotoxylin/eosin stained (2 µm) transverse sections were used. Smooth muscle cells and macrophages were detected with respectively α-actin antibodies (Sigma) and anti-macrophage antibodies (RAM11, DAKO, Glostrup, Denmark). […]

[2] = test system: female ovariectomized rabbits; assay: Uterus weight (estrogenic activity), cholesterol fed rabbit model; conditions: for Uterus weight per 100 grams body weight: cholesterol diet, OVX, necropsy at 20 weeks
Method: as §1, §2, §3, §4
(§5) During the experiment blood samples were drawn out of the central ear artery after sedation with Hypnorm (0.1 ml i.m.) (Janssen Pharmaceutics, Beerse, Belgium) before the daily treatment, at week 4,8,12,16 and 20, to monitor the plasma cholesterol levels and to measure, at week 17, plasma estradiol levels and plasma tibolone levels. Twenty weeks after the start of the experiment animals were anaesthetized by an i.m. injection of Hypnorm (0.5 ml/kg). After blood sampling the rabbits were killed by exsanguination and the aortic arch, uterus and carotid artery removed for further analyses.
In addition to example 2 an additional experiment was performed with two lower doses of Org OD14 and a higher dose of estradiol decanoate. […] The procedures were identical to those in example 2.
Three weeks prior to the start of the experiment the animals were ovariectomized. At the start of the experiment the carotid artery was de-endothelialised using the air-drying technique. The normal rabbit chow was replaced by the atherogenic diet except for the control group which received during the experiment the normal rabbit chow.
The treatments (table II) of group 1, 2, 3 and 4 were daily administered orally as a tablet, prepared as in example 1. The doses of Org OD14 per tablet, however, were 0.6 mg and 0.15 mg respectively. Group 5 was on treatment with 17β-estradiol decanoate (300 µg in 1 ml arachis oil injected subcutaneously once a week). Twenty weeks after the start of the experiment was ended in the same manner as described in example 2.
After 20 weeks of diet and of daily treatment, necropsy was performed to determine the accumulation of cholesterol and fatty streaks in the aortic arch and the advanced lesions in the carotid artery. […]

[3] = Plasma estradiol and plasma tibolone levels at week 17; conditions: rabbit, 6 mg per day
Method: as §5
The plasma levels indicate that both modes of administration of estradiol lead to effective plasma levels. Using the human doses of estradiol and Org OD14 used for HRT treatment and corrected for the caloric intake it was expected that in the rabbit an oral dose of 4 mg estradiol is about equipotent with 6 mg Org OD14.

[4] = Example 2, Group 4: 6 mg orally daily
[5] = Example 2, Group 5: 2 mg orally daily
[6] = Example 3: 0.15 mg orally once daily
[7] = Example 3: 0.6 mg orally once daily

C#C[C@]1(O)CC[C@H]2[C@@H]3[C@H](C)CC4=C(CCC(=O)C4)[C@H]3CC[C@@]21C [Org OD14, 7α-methyl-17α-ethynyl-17β-hydroxy-estra-5(10)-en-3-one]
Advanced lesions in carotid artery: intimal surface [1, 4]: 0.13 ± 0.03 * mm^2 | Advanced lesions in carotid artery: intimal surface [1, 5]: 0.14 ± 0.02 * mm^2 | Histology of the lesions ([1]; Example 2, carotid artery, placebo on cholesterol diet: smooth muscle cells and foam cells): the lesions consisted only of smooth muscle cells | advanced lesion formation following mechanical de-endothelisation (in words) ([1]; Example 2: Org OD14 2 and 6 mg, E2 4 mg orally daily, E2D 150 µg s.c. weekly): strongly inhibited the formation of advanced lesions | Advanced lesions in carotid artery: intimal surface [1, 6]: 0.24 ± 0.05 mm^2 | Advanced lesions in carotid artery: intimal surface [1, 7]: 0.14 ± 0.01 * mm^2 | Uterus weight per 100 grams body weight [2, 4]: 0.24 ±0.06 per 100 grams body weight | Uterus weight per 100 grams body weight [2, 5]: 0.29 ±0.03 per 100 grams body weight | uterus weight increase (estrogenic activity, in words) ([2]; Example 2: Org OD14 2 and 6 mg per day): to a similar extent as both estradiol treatments | increase of uterus weight ([2]; Example 3, text: Org OD14 (0.15 mg dose per Table IV), versus placebo 0.054): 144% | uterus weight ([2]; Example 3, text: Org OD14 (0.15 mg dose per Table IV), placebo 0.054): 0.132 grams per 100 grams body weigh | Uterus weight per 100 grams body weight [2, 6]: 0.132 ±0.013 per 100 grams body weight | Uterus weight per 100 grams body weight [2, 7]: 0.224 ±0.016 per 100 grams body weight | plasma concentrations of Org OD14 [3]: comparable to those obtained in women with the clinical dose of 2.5 mg
